Reference: patent US8003734B2, “Biologically tolerated low molecular weight polyethylenimines” (priority 1997, dated 2011)

Experiments:
[1] = system: pig brain capillary endothelial cells; test: In-vitro transfection of primary cultures, β-galactosidase reporter gene; format: cell-based
Procedure: The cells, which were incubated at 37° C., 95% relative atmospheric humidity and 5% CO2, were passaged twice a week, after having reached confluence, using trypsin/EGTA solution (2.5% stock solution of trypsin, 50 mM solution of ethylene glycol tetraacetic acid, PBS, pH 7.4, in a ratio of 1:1:8). Since the cells detached from the substratum in cell clusters rather than individually, a ⅛ passage was carried out in each case. Cerebral capillary endothelial cells were isolated and cultured in accordance with the method of Bowman et al. and Mischek et al. [Mischek et al., Cell. Tiss. Res. 256: 221-226 (1989)]. […]
The ECV 304 cells and 3T3 mouse fibroblasts, which were sown in 3 cm^2 Petri dishes, and the primary endothelial cells, which were sown in 6-well culture plates, were washed with PBS, pH 7.4, immediately before the experiments and provided with new, serum-supplemented medium. […] The cells were subsequently incubated for 60 hours and the luciferase or β-galactosidase activity was determined in analogy with the manufacturer's instructions. […]
The transfection efficiency of the PEI complexes was determined both with cell lines (3T3 mouse fibroblasts and the human endothelial cell line ECV304) and with primary cultures (pig brain capillary endothelial cells). […]

L929 mouse fibroblasts = test: Cytotoxicity study, MTT assay; format: cell-based
Procedure: L929 mouse fibroblasts were cultured under the standard conditions with which the skilled person is familiar. These cells were sown in 96-well cell culture plates at a density of 8000 cells/well and cultured for 24 h before they were used for toxicity experiments.
The toxicity of the polymers was determined on L929 mouse fibroblasts using the MTT assay in accordance with the method of Mosmann et al. [Mosmann, J. Immunol. Methods 65: 55-63 (1983)]. The polymer dilution series were prepared in DMEM containing 10% FCS and 2 mM glutamine and sterilized by filtration (0.2 μm, Schleicher & Schuell, Dassel). The pH and osmolarity of the solutions were corrected if required. After a pre-incubation of 24 h, the cells were treated with the polymer solutions and incubated for 1, 3, 12 and 24 h. The viability of the cells was quantified UV-photometrically by measuring the formazan concentration.
In a second series of experiments, the cells were generally only treated with the polymers for 1 h, after which they were washed and then cultured for a further 3, 12 and 24 h in PEI-free cell culture medium. The evaluation was carried out as described above.
The toxicity of the PEIs was determined in vitro on L929 mouse fibroblasts, which various standard organizations recommend as the standard cell culture model for determining the cytotoxicity and biocompatibility of polymers. […]

Substance: polyethylenimine [LMW PEI]
- in-vitro maximum tolerable, noncytotoxic dose (MTD) of the complexes [1]: 90 μg/10 μg of DNA
- cytotoxicity for fibroblasts as compared with that of HMW PEI (L929 mouse fibroblasts): markedly reduced
